Measurements from US20050004167A1, “Branched chain amino acid-dependent aminotransferase inhibitors and their use in the treatment of neurodegenerative diseases” (WARNER-LAMBERT COMPANY LLC, priority 2001, published 2005).
Several values for one entry are separate records, joined by “and”; a condition that tells them apart may be missing. Equal values may be shown once.

Assays:
[1] = target: T1, human Branched Chain Amino Acid Aminotransferase cytosolic form (hBCATc) (Homo sapiens, UniProt P54687); assay: In vitro coupled enzyme assay (glutamate dehydrogenase, NADH formation), human BCATc; format: biochemical; details: recombinant human BCATc, 37° C., 25 mM phosphate buffer pH 7.8; several values in a cell = repeat determinations; read-out: RhBCATc
T1 construct: made in house; host or cells: E. coli BL21(DE3)
T1 sequence (P54687 1-386): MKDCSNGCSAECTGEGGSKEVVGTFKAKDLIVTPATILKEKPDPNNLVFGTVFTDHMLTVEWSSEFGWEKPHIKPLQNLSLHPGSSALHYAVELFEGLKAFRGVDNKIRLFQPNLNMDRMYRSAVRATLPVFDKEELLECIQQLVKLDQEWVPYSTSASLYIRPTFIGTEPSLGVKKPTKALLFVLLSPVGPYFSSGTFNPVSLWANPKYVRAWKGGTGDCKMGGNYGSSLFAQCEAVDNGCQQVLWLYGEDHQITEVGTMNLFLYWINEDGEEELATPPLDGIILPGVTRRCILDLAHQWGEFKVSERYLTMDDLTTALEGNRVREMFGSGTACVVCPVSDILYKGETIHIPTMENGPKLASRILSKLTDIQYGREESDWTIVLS
Description: In vitro enzyme assay—human Branched Chain Amino Acid Aminotransferase cytosolic form (hBCATc) and mitochondrial form (hBCATm) as well as rat BCAT cytosolic form were assayed at 37° C. in 25 mM phosphate buffer pH 7.8. In addition, 2 mM DTT and 12.5 mM […] were added to the assay mixture. A coupling enzyme assay was used to monitor the production of glutamate. The formation of NADH from NAD+ at […] was followed on a 96-well plate Molecular Devices plate reader.
The following components were used in this coupled assay: 4 mM ADP, 1 mM NAD+, 750 μM L-Leucine, 500 μM α-ketoglutarate, 10 μM pyridoxal phosphate, 1 unit glutamate dehydrogenase, and 1.25 μg of the appropriate BCAT enzyme. Inhibitions by compounds were assayed by adding various concentrations to this coupled assay procedure as a DMSO stock up to a 5% v/v DMSO/buffer ratio.
Enzyme Preparation—humanBCATc and ratBCATc were expressed in BL21(DE3) cells. A growing culture of cells was induced with 1 mM IPTG at room temperature overnight. These cells were harvested by centrifugation at 10,000 g for 20 minutes. The supernatant was discarded, and the cells were stored at −80° C. until needed. The protein was purified by the following method. The cell paste was resuspended in extraction buffer (0.1 M phosphate, pH 8.0, with 0.01 M Tris-HCL and 5 mM TCEP and then lysed on a French Press at 1000 psi. The lysate was centrifuged at 10,000 g for 15 minutes, and the pellet was discarded. The supernatant was loaded onto a Hitrap Chelating column previously charged with 0.1 M NiSO4 and washed with 3 to 4 column volumes of extraction buffer. The column was then washed with 0.01 Tris, pH 7.5, 10% glycerol, 150 mM NaCl, 5 mM TCEP for two column volumes. The column was then further washed with two column volumes of 0.1 M phosphate, pH 6.0, 0.01 M Tris, 10% glycerol and 750 mM NaCl. Finally, the column was washed with two column volumes of the same buffer plus 50 mM imidazole. The BCAT enzyme was then eluted with the same buffer but with 350 mM imidazole. The eluant was then dialyzed overnight against 10 mM phosphate buffer pH 8.0, 10% glycerol, and 5 mM TCEP. The dialyzed protein was then loaded onto a Q-sepharose column and eluted using a salt gradient. Active fractions were collected and further purified on a Superose-12 column to yield pure BCAT protein.

Structure (SMILES)	melting point	IC50 [1]
O=C(NNS(=O)(=O)c1cc(Cl)cc(Cl)c1)c1ccc2ncccc2c1 (hydrate or solvate) [Example 138, 6-Quinolinecarboxylic acid, 2-[(3,5-dichlorophenyl)sulfonyl]hydrazide]	241.6 to 242.3 °C	
O=C(NNS(=O)(=O)c1cc(Cl)cc(Cl)c1)c1cnc2ccccc2c1 (hydrate or solvate) [Example 139, 3-Quinolinecarboxylic acid, 2-[(3,5-dichlorophenyl)sulfonyl]hydrazide]	241.3 to 241.9 °C	
O=C(NNS(=O)(=O)c1ccccc1)c1nccc2ccccc12 (hydrate or solvate) [Example 152, Isoquinoline-1-carboxylic acid 2-(phenylsulfonyl)hydrazide]	198 to 200 °C	
O=C(NNS(=O)(=O)c1ccccc1)c1ccc2[nH]ccc2c1 (hydrate or solvate) [Example 153, 1H-Indole-5-carboxylic acid 2-(phenylsulfonyl)hydrazide]	209 to 211 °C	
O=C(NNS(=O)(=O)c1ccccc1)c1cnc2ccccc2c1 (hydrate or solvate) [Example 154, Quinoline-3-carboxylic acid 2-(phenylsulfonyl)hydrazide]	249 to 250 °C	
O=C(NNS(=O)(=O)c1c(Cl)cccc1Cl)c1ccc2oc3ccccc3c2c1 [Example 28, 2-Dibenzofurancarboxylic acid 2-[(2,6-dichlorophenyl)sulfonyl]hydrazide]	202 to 203 °C	> 100 µM
O=C(NNS(=O)(=O)c1ccccc1Br)c1cc2cc(Cl)ccc2o1 [Example 44, 2-Benzofurancarboxylic acid, 5-chloro-2-[(2-bromophenyl)sulfonyl]hydrazide]	206.4 to 207.3 °C	3.44 µM
Cc1ccccc1S(=O)(=O)NNC(=O)c1cc2cc(Cl)ccc2o1 [Example 46, 2-Benzofurancarboxylic acid, 5-chloro-2-[(2-methylphenyl)sulfonyl]hydrazide]	190.5 to 192 °C	1.08 µM and 0.7 µM
O=C(NNS(=O)(=O)c1ccccc1C(F)(F)F)c1ccc2ncccc2c1 [Example 134, 6-Quinolinecarboxylic acid, 2-[(2-trifluoromethylphenyl)sulfonyl]hydrazide]	236.7 to 237.4 °C	17 µM
O=C(NNS(=O)(=O)c1ccccc1OC(F)(F)F)c1ccc2ncccc2c1 [Example 136, 6-Quinolinecarboxylic acid, 2-[(2-trifluoromethoxyphenyl)sulfonyl]hydrazide]	243.5 to 243.9 °C	40 µM
O=C(NNS(=O)(=O)c1ccc(F)c(Cl)c1)c1ccc2ncccc2c1 [Example 140, 6-Quinolinecarboxylic acid, 2-[(3-chloro-4-fluorophenyl)sulfonyl]hydrazide]	241.9 to 242.6 °C	> 100 µM
O=C(NNS(=O)(=O)c1ccc(F)c(Cl)c1)c1cnc2ccccc2c1 [Example 141, 3-Quinolinecarboxylic acid, 2-[(3-chloro-4-fluorophenyl)sulfonyl]hydrazide]	245 to 245.7 °C	> 100 µM
COc1cccc(S(=O)(=O)NNC(=O)c2ccc3ncccc3c2)c1 [Example 142, 6-Quinolinecarboxylic acid, 2-[(3-methoxyphenyl)sulfonyl]hydrazide]	201.9 to 202.7 °C	46 µM
COc1cccc(S(=O)(=O)NNC(=O)c2cnc3ccccc3c2)c1 [Example 143, 3-Quinolinecarboxylic acid, 2-[(3-methoxyphenyl)sulfonyl]hydrazide]	226.9 to 227.2 °C	80 µM
O=C(NNS(=O)(=O)c1cccc(Br)c1)c1ccc2ncccc2c1 [Example 144, 6-Quinolinecarboxylic acid, 2-[(3-bromophenyl)sulfonyl]hydrazide]	216 to 216.8 °C	29 µM
O=C(NNS(=O)(=O)c1cccc(Br)c1)c1cnc2ccccc2c1 [Example 145, 3-Quinolinecarboxylic acid, 2-[(3-bromophenyl)sulfonyl]hydrazide]	231.5 to 232.3 °C	80 µM
CCOc1cccc2cc(C(=O)NNS(=O)(=O)c3ccccc3)oc12 [Example 147, 7-Ethoxy-2-benzofurancarboxylic acid 2-(phenylsulfonyl)-hydrazide]	223 to 224 °C	
O=C(NNS(=O)(=O)c1ccccc1)c1cc2cccc(Cl)c2o1 [Example 148, 7-Chloro-benzofuran-2-carboxylic acid 2-(phenylsulfonyl)hydrazide]	223 to 224 °C	
Nc1ccc2[nH]c(C(=O)NNS(=O)(=O)c3ccccc3)cc2c1 [Example 150, 2-Indolecarboxylic acid, 5-amino-2-phenylsulfonyl hydrazide]	240.2 to 241.1 °C	
O=C(NNS(=O)(=O)c1ccc([N+](=O)[O-])cc1)c1ccc2oc3ccccc3c2c1 [Example 159, 2-Dibenzofurancarboxylic acid, 2-(4-nitrophenyl)sulfonyl hydrazide]	239.3 to 239.9 °C	
COc1ccc(S(=O)(=O)Nc2ccc3oc(C(=O)NNS(=O)(=O)c4ccccc4)cc3c2)cc1 [Example 160, 2-Benzofurancarboxylic acid, 5-(4-methoxyphenylsulfonylamino)-, 2-(phenylsulfonyl)hydrazide]	213 to 214 °C	
Cc1ccc(S(=O)(=O)Nc2ccc3oc(C(=O)NNS(=O)(=O)c4ccccc4)cc3c2)cc1 [Example 161, 2-Benzofurancarboxylic acid, 5-(4-methylphenylsulfonylamino)-, 2-(phenylsulfonyl)hydrazide]	181 to 183 °C	
O=C(NNS(=O)(=O)c1ccccc1[N+](=O)[O-])c1ccc2oc3ccccc3c2c1 [Example 162, 2-Dibenzofurancarboxylic acid, 2-[(2-nitrophenyl)sulfonyl]hydrazide]	223.4 to 224.1 °C	
CCCCCc1ccc(S(=O)(=O)Nc2ccc3oc(C(=O)NNS(=O)(=O)c4ccccc4)cc3c2)cc1 [Example 163, 2-Benzofurancarboxylic acid, 5-(4-pentylphenylsulfonylamino)-, 2-(phenylsulfonyl)hydrazide]	169 to 169.8 °C	
CC(C)Nc1ccc2oc(C(=O)NNS(=O)(=O)c3ccccc3)cc2c1 [Example 164, 2-Benzofurancarboxylic acid, 5-(N-isopropylamino)-, 2-(phenylsulfonyl)hydrazide]	94.7 to 95.5 °C	
CCCc1ccc(S(=O)(=O)Nc2ccc3oc(C(=O)NNS(=O)(=O)c4ccccc4)cc3c2)cc1 [Example 165, 2-Benzofurancarboxylic acid, 5-(4-propyllphenylsulfonylamino)-, 2-(phenylsulfonyl)hydrazide]	160.4 to 161.1 °C	
Nc1ccccc1S(=O)(=O)NNC(=O)c1ccc2oc3ccccc3c2c1 [Example 166, 2-Dibenzofurancarboxylic acid, 2-[(2-aminophenyl)sulfonyl]hydrazide]	217.9 to 218.4 °C	
O=C(NNS(=O)(=O)c1ccccc1)c1cc2cc([N+](=O)[O-])ccc2[nH]1 [Example 170, 2-Indolecarboxylic acid, 5-nitro-2-phenylsulfonyl hydrazide]	268.2 to 269.1 °C	
O=C(NNS(=O)(=O)c1ccccc1)c1cc2cc(Cl)ccc2[nH]1 [Example 171, 2-Indolecarboxylic acid, 5-chloro-2-phenylsulfonyl hydrazide]	79.1 to 79.9 °C	
